Values of other authors in patent US20260272874A1, “COMPOUNDS FOR THE TREATMENT AND PREVENTION OF VIRAL DISEASES” (priority 2023, published 2026).

Legend:
[1] = system: coronavirus
[2] = system: RNA helicase enzyme eIF4A; conditions: previous studies
[3] = system: corona viruses, SARS and MERS virus
[4] = system: SARS-CoV-2

For 4E2RCat, the coronavirus replication [1] is given as “capable of blocking coronavirus replication”.

For Silvesterol, the “inhibition of RNA helicase enzyme eIF4A” value [2] is listed as “potent and selective inhibitor” and the antiviral activity [3] is listed as “broad spectrum antiviral activity”.

In the case of `COc1cc2c(c(OC)n1)[C@]1(O)[C@H](O)[C@H](CN(C)C)[C@@H](c3ccccc3)[C@]1(c1ccc(C#N)cc1)O2` [Zotatifin], the “antiviral activity against SARS-CoV-2” value [4] is listed as “shows antiviral activity”.
